Reference: US20250051347A1, “BIFUNCTIONAL CHIMERIC HETEROCYCLIC COMPOUND AND USE THEREOF AS ANDROGEN RECEPTOR DEGRADER” (Hinova Pharmaceuticals, Inc., priority 2021, published 2025)
Read-outs that look alike come from different tables or passages of the source.

What was measured:
[1] = biological target: T1, androgen receptor (AR) splicing variant AR-v7 (Homo sapiens, UniProt P10275); assay: Degradation activity on androgen receptor splicing variant AR-v7 in 22RV1 cells (ELISA); type: cell-based; settings: AR-v7 degradation in 22RV1 cells, 48 h, class symbols
T1 construct: The degradation activity of compounds on AR-v7 in 22RV1 cells; host or cells: 22RV1 cells
T1 sequence (P10275 1-644 isoform P10275-3): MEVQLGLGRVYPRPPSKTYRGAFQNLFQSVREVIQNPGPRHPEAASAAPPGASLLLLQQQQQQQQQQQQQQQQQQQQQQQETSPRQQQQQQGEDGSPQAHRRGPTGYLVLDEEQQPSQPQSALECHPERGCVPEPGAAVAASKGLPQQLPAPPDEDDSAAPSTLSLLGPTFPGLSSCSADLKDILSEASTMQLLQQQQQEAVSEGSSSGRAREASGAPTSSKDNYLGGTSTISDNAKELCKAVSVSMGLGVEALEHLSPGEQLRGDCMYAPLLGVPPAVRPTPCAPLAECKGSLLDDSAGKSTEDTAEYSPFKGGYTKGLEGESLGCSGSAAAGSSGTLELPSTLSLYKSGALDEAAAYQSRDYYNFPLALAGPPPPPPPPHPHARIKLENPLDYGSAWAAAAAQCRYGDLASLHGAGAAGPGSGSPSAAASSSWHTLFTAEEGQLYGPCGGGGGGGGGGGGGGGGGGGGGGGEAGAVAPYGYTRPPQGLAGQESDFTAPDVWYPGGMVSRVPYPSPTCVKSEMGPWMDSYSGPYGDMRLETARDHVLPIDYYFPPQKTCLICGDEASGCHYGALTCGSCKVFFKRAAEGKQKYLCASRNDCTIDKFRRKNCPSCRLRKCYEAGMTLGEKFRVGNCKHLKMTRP

[2] = Pharmacokinetics in mice (plasma exposure after oral administration); type: in vivo; settings: ICR mice, oral (i.g.) 3 mg/kg; for AUC(0-inf): mouse, read-out: After oral administration of 3 mg/kg, mouse plasma exposure AUCinf
Procedure: • LC-20AD high performance liquid chromatography (SHIMADZU, Japan) • API4000 triple quadrupole mass spectrometer (Applied Biosystem, USA) • Phenix Winnolin Pharmacokinetic software (Version 6.3, Certara, USA) • High speed freezing centrifuge (Thermo Fisher Scientific) • Analytical balance (Sartorius, SECURA225D-ICN) • ICR mice (Chengdu Dossy Experimental Animals CO., LTD.)
A suitable amount of drug was accurately weighed, and then the medium (5% DMSO, 15% HS-15, 80% DSW) was added to prepare the solution at a concentration of 0.1 mg/ml (i.v.) and 0.3 mg/ml (i.g.).
18 healthy adult ICR mice were divided into two groups (9 mice for i.v. group; 9 mice for i.g. group), and administered by tail vein or by gavage after fasting overnight (free drinking water); using the satellite blood collection method, 3 animals were collected at each time point, and then 0.1 ml of blood obtained at different time points was anticoagulated with EDTA-K2, centrifuged at 4° C. for 5 min to separate the plasma, and stored at −80° C. for detection. The sampling time points after i.v. administration were 5 min, 15 min, 0.5 h, 1 h, 2 h, 4 h, 8 h, 12 h, and 24 h; while the sampling time points for i.g. group were before administration (0 h) as well as 0.5 h, 1 h, 2 h, 4 h, 6 h, 8 h, 12 h, and 24 h after administration. Then, the drug concentration in plasma was determined by LC/MS/MS.

[3] = Homo sapiens, 22Rv1, 144 h, read-out: 22RV1 IC50 (nM), 22RV1 cells, 6 days culture, CCK-8, OD 450 nm

Compound | DC50 [1] [nM] | AUC(0-inf) [2] [ng·h/mL] | IC50 (22RV1 cells; [3]) [nM] | After oral administration of 3 mg/kg, mouse plasma exposure AUCinf (μg*h/mL) [2] | IC50 (22RV1 cells; read-out: 22RV1 IC50, 22RV1 cells, 6 days culture, CCK-8, OD 450 nm) [nM]
CC(C)(c1ccc(O[C@H]2C[C@H](Nc3ccc4c(c3)C(=O)N(C3CCC(=O)NC3=O)C4=O)C2)cc1)c1ccc(N2CCc3cnc(N4CC5(COC5)C4)nc3C2)cc1 (stereo partly drawn) [Example 189] | < 10 | 5000 to 30000 | 9 |  | 
CC(C)(c1ccc(O[C@H]2C[C@@H](Nc3ccc4c(c3)C(=O)N(C3CCC(=O)NC3=O)C4=O)C2)cc1)c1ccc(N2CCc3cnc(N4CC5(COC5)C4)nc3C2)cc1 (stereo partly drawn) [Example 190] | < 10 | 5000 to 30000 | 12 |  | 
CC(C)(c1ccc(OCc2cnc(N3CC4(COC4)C3)nc2)cc1)c1ccc(O[C@H]2C[C@@H](Nc3ccc4c(c3)C(=O)N(C3CCC(=O)NC3=O)C4=O)C2)cc1 (stereo partly drawn) [Example 193] | 11 to 100 | 1000 to 5000 | 36 |  | 
CC(C)(c1ccc(O[C@H]2C[C@H](Nc3ccc4c(c3)C(=O)N(C3CCC(=O)NC3=O)C4=O)C2)cc1)c1ccc(N2CCc3nc(N4CC5(COC5)C4)ncc3C2)cc1 (stereo partly drawn) [Example 195] | < 10 | 1000 to 5000 | 15 |  | 
CC(C)(c1ccc(OCc2ccnc(N3CC4(CCO4)C3)n2)cc1)c1ccc(O[C@H]2C[C@@H](Nc3ccc4c(c3)C(=O)N(C3CCC(=O)NC3=O)C4=O)C2)cc1 (stereo partly drawn) [Example 196] | < 10 | 1000 to 5000 | 10 |  | 
Cc1nc(-c2ccc(Oc3ccc(C(C)(C)c4ccc(O[C@H]5C[C@H](Nc6ccc7c(c6)C(=O)N(C6CCC(=O)NC6=O)C7=O)C5)cc4)cc3)cn2)no1 (stereo partly drawn) [Example 209] | < 10 |  |  | A (30-5 μg*h/mL) | 5
CC(O)c1ncc(Oc2ccc(C(C)(C)c3ccc(O[C@H]4C[C@H](Nc5ccc6c(c5)C(=O)N(C5CCC(=O)NC5=O)C6=O)C4)cn3)cc2)cn1 (stereo partly drawn) [Example 223] | < 10 | 1000 to 5000 | 0.5 |  | 
CC(C)(c1ccc(Oc2ccnc(N3CC4(COC4)C3)n2)cc1)c1ccc(OC2CC(Nc3ccc4c(c3)C(=O)N(C3CCC(=O)NC3=O)C4=O)C2)cc1 (stereo not drawn) [Example 240, 5-((3-(4-(2-(4-((2-(2-oxa-6-azaspiro[3.3]heptan-6-yl)pyrimidin-4-yl)oxy)phenyl)propan-2-yl)phenoxy)cyclobutyl)amino)-2-(2,6-dioxopiperidin-3-yl)isoindolin-1,3-dione] | < 10 | 1000 to 5000 | 12 |  | 
CC(C)(c1ccc(Oc2cnc(N3CC4(COC4)C3)nc2)cc1)c1ccc(O[C@H]2C[C@H](Nc3ccc4c(c3)C(=O)N(C3CCC(=O)NC3=O)C4=O)C2)cc1 (stereo partly drawn) [Example 248] | < 10 | 1000 to 5000 | 23 |  | 
Cc1noc(-c2ncc(Oc3ccc(C(C)(C)c4ccc(O[C@H]5C[C@H](Nc6ccc7c(c6)C(=O)N(C6CCC(=O)NC6=O)C7=O)C5)cc4)cc3)cn2)n1 (stereo partly drawn) [Example 254] | < 10 | 5000 to 30000 | 6 |  | 
CC1(N)CN(c2nccc(COc3ccc(C(C)(C)c4ccc(O[C@H]5C[C@@H](Nc6ccc7c(c6)C(=O)N(C6CCC(=O)NC6=O)C7=O)C5)cc4)cc3)n2)C1 (stereo partly drawn) [Example 268] | < 10 | 1000 to 5000 | 9 |  | 
Cc1nc(-c2nccc(COc3ccc(C(C)(C)c4ccc(O[C@H]5C[C@H](Nc6ccc7c(c6)C(=O)N(C6CCC(=O)NC6=O)C7=O)C5)cc4)cc3)n2)no1 (stereo partly drawn) [Example 279] | < 10 | 5000 to 30000 | 4 |  | 
CC(C)(c1ccc(OCc2ccnc(N3CC4(COC4)C3)n2)cc1)c1ccc(OC[C@@H]2CCN2c2ccc3c(c2)C(=O)N(C2CCC(=O)NC2=O)C3=O)cc1 (stereo partly drawn) [Example 312, 5-((S)-2-((4-(2-(4-((2-(2-oxa-6-azaspiro[3.3]heptan-6-yl)pyrimidin-4-yl)methoxy)phenyl)propan-2-yl)phenoxy)methyl)azetidin-1-yl)-2-(2,6-dioxopiperidin-3-yl)isoindolin-1,3-dione] | < 10 | 100 to 1000 | 22 |  | 
CC(C)(c1ccc(Oc2ncc(-n3nccn3)cn2)cc1)c1ccc(O[C@H]2C[C@H](Nc3ccc4c(c3)C(=O)N(C3CCC(=O)NC3=O)C4=O)C2)cc1 (stereo partly drawn) [Example 321] | < 10 | 5000 to 30000 | 8 |  | 
Cc1nc(-c2ccc(Oc3ccc(C(C)(C)c4ccc(O[C@H]5C[C@H](Nc6ccc7c(c6)C(=O)N(C6CCC(=O)NC6=O)C7=O)C5)cc4)cc3)nn2)no1 (stereo partly drawn) [Example 328] | 11 to 100 | 5000 to 30000 | 5 |  | 

Now from value to compound, other results behind:

DC50 [1] [nM] | AUC(0-inf) [2] [ng·h/mL] | IC50 (22RV1 cells; [3]) [nM] | Compound | After oral administration of 3 mg/kg, mouse plasma exposure AUCinf (μg*h/mL) [2] | IC50 (22RV1 cells; read-out: 22RV1 IC50, 22RV1 cells, 6 days culture, CCK-8, OD 450 nm) [nM]
< 10 | 5000 to 30000 | 10 | CC(C)(c1ccc(Oc2ccc(-n3nccn3)nc2)cc1)c1ccc(O[C@H]2C[C@H](Nc3ccc4c(c3)C(=O)N(C3CCC(=O)NC3=O)C4=O)C2)cc1 (stereo partly drawn) [Example 206, 5-((1r,3r)-3-(4-(2-(4-((6-(2H-1,2,3-triazol-2-yl)pyridin-3-yl)oxy)phenyl)propan-2-ylphenoxy)cyclobutyl)amino)-2-(2,6-dioxopiperidin-3-yl)isoindolin-1,3-dione] |  | 
< 10 | 5000 to 30000 | 7 | C=CC(c1ccc(Oc2cnc(-c3noc(C)n3)nc2)cc1)c1ccc(O[C@H]2C[C@H](Nc3ccc4c(c3)C(=O)N(C3CCC(=O)NC3=O)C4=O)C2)cc1 (stereo partly drawn) [Example 210] |  | 
< 10 | 5000 to 30000 | 14 | Cc1nc(-c2ncc(Oc3ccc(C4(c5ccc(O[C@H]6C[C@H](Nc7ccc8c(c7)C(=O)N(C7CCC(=O)NC7=O)C8=O)C6)cc5)CC4)cc3)cn2)no1 (stereo partly drawn) [Example 212] |  | 
11 to 100 | 5000 to 30000 | 8.6 | CC(C)(c1ccc(OCc2ccnc(-n3nccn3)n2)cc1)c1ccc(O[C@H]2C[C@H](Nc3ccc4c(c3)C(=O)N(C3CCC(=O)NC3=O)C4=O)C2)cc1 (stereo partly drawn) [Example 231] |  | 
< 10 | 100 to 1000 | 8 | CN1CCC(Nc2nccc(COc3ccc(C(C)(C)c4ccc(O[C@H]5C[C@H](Nc6ccc7c(c6)C(=O)N(C6CCC(=O)NC6=O)C7=O)C5)cc4)cc3)n2)CC1 (stereo partly drawn) [Example 232] |  | 
< 10 | 100 to 1000 | 3 | CC(C)(c1ccc(OCc2ccnc(NC3CCN(CCCCO)CC3)n2)cc1)c1ccc(O[C@H]2C[C@H](Nc3ccc4c(c3)C(=O)N(C3CCC(=O)NC3=O)C4=O)C2)cc1 (stereo partly drawn) [Example 239] |  | 
< 10 | 1000 to 5000 | 6 | Cc1noc(-c2nccc(COc3ccc(C(C)(C)c4ccc(O[C@H]5C[C@@H](Nc6ccc7c(c6)C(=O)N(C6CCC(=O)NC6=O)C7=O)C5)cc4)cc3)n2)n1 (stereo partly drawn) [Example 251] |  | 
< 10 | 5000 to 30000 | 7 | C=CC(c1ccc(Oc2ccc(-c3noc(C)n3)nn2)cc1)c1ccc(O[C@H]2C[C@H](Nc3ccc4c(c3)C(=O)N(C3CCC(=O)NC3=O)C4=O)C2)cc1 (stereo partly drawn) [Example 259] |  | 
< 10 | 1000 to 5000 | 4 | CC1(N)CN(c2nccc(COc3ccc(C(C)(C)c4ccc(O[C@H]5C[C@H](Nc6ccc7c(c6)C(=O)N(C6CCC(=O)NC6=O)C7=O)C5)cc4)cc3)n2)C1 (stereo partly drawn) [Example 275] |  | 
< 10 | 5000 to 30000 | 11 | Cc1nnc(-c2ccc(Oc3ccc(C(C)(C)c4ccc(O[C@H]5C[C@H](Nc6ccc7c(c6)C(=O)N(C6CCC(=O)NC6=O)C7=O)C5)cc4)cc3)cn2)o1 (stereo partly drawn) [Example 323] |  | 
< 10 | 5000 to 30000 | 4 | CC(C)(c1ccc(Oc2ccc(-n3nccn3)nn2)cc1)c1ccc(O[C@H]2C[C@H](Nc3ccc4c(c3)C(=O)N(C3CCC(=O)NC3=O)C4=O)C2)cc1 (stereo partly drawn) [Example 324] |  | 
< 10 | 1000 to 5000 | 2 | Cc1nc(-c2ccc(Oc3ccc(C4(c5ccc(O[C@H]6C[C@H](Nc7ccc8c(c7)C(=O)N(C7CCC(=O)NC7=O)C8=O)C6)cc5)CCCC4)cc3)nn2)no1 (stereo partly drawn) [Example 338] |  | 
